System: cerebral cortical mixed neuronal cells or hippocampal neurons
Assay: Oxygen glucose deprivation (OGD) of neurons in culture, cell viability
Format: cell-based, rat
Settings: for neuroprotection against OGD-induced neuronal cell death: 200 nM, 500 nM or 1 μM added after 90 mins OGD and 2 h reoxygenation, Hoechst, calcein or MTT
Text: Primary cultures of cortical and hippocampal neurons were harvested from 18-day-old embryos (E18) taken from timed-pregnant, two-month-old Sprague-Dawley (SD) rats (Charles River Lab., Wilmington, Mass.). Briefly, timed-pregnant SD rats were euthanized and embryos were collected in sterile conditions. Embryonic brains were dissected out by forceps on ice and placed in a petri dish containing ice-cold Hank's Balanced Salt Solution (HBSS) (GIBCO). Meninges were removed under a dissecting microscope and cortical tissues were chopped into small pieces with micro-spring scissors. These tissues were transferred to 15 ml tubes containing trypsin-EDTA (0.025% in HBSS) and DNase I. The tubes were incubated in 37° C. chamber for 15 mins and were agitated every 5 mins. After stopping the trypsinization with 5 ml 10% FBS, these tissues were triturated 15 times with a fire polished Pasteur pipet. Cell clumps were left to settle for 2 mins and the supernatant was transferred to a 15 ml Eppendorf tube. The supernatant was filtered through a 70 μm pore-sized filter (Corning cell strainer) and centrifuged for 5 mins at 1000 rpm. The cells were then resuspended in Neurobasal medium (GIBCO) containing 2% B27 (GIBCO) and 2% N2 (GIBCO) supplements, along with 0.5 mM glutamine, 50 U/ml penicillin/streptomycin.
Cells were counted using a Neubauer hemocytometer. 1×10^6 cells were seeded on poly-D-lysine-coated 12 well cell culture dish (CORNING) and cultured in incubator (37° C., 5% CO2). Culture medium was first replaced after 24 h, then half of the medium was replaced with fresh medium every three days. As a result, approximately, 90% purity of neurons was obtained as determined by class-III-β tubulin, GFAP and Hoechst 33258 staining. Cells were maintained in culture for about 2 weeks until they were exposed to uncompensated oxidative stress, OGD, or NMDA excitotoxicity.
An in vitro oxygen glucose deprivation (OGD) model was established. Primary cortical neurons were cultured from SD rat embryos. On day in vitro (DIV) 12, cells were washed with phosphate-buffered saline and incubated in glucose-free Neurobasal medium (GIBCO) for 30 mins. The cells were then placed in a modular incubator chamber and incubated in an anaerobic chamber (95% N2, 5% CO2) at 37° C. for 90 mins for OGD.
After 90 mins of OGD exposure, cells were returned to the original medium (Neurobasal medium (GIBCO) containing 2% B27 (GIBCO) and 2% N2 (GIBCO) supplements, along with 0.5 mM glutamine, 50 U/ml penicillin/streptomycin) and placed in a normoxic chamber (37° C., 5% CO2) for 2 h. […] a normoxic chamber (37° C., 5% CO2) for 12 h, after which cells were sampled and assayed for cell viability using different methods as previously described (25-28). Cerebral cortical mixed neuronal cells or hippocampal cells in culture were exposed to either NMDA or uncompensated oxidative stress (UOS) for 12 h by addition of either NMDA (25 μM, 50 μM, or 100 μM) concentration or by the addition of TNFα (10 ng/mL) and H2O2 (50 μM, 100 μM, or 200 μM). Cell viability and neuroprotection in the presence of ELV-N32, ELV-N34, 32:6, or 34:6 were assayed after 12 h.
Cells were washed with 1× Dulbecco's Phosphate Buffered Saline (DPBS) containing no calcium or magnesium (GIBCO) and fixed for 10 mins using ice-cold 4% paraformaldehyde (PFA) followed by 15 mins incubation in 100% methanol. Cells were washed with 1× Phosphate Buffered Saline (PBS) pH 7.4 (GIBCO) and incubated in PBS containing 20 μM Hoechst 33258 (Molecular Probes) for 20 mins. Cells were then washed 3 times with 1×PBS and stored in 1×PBS at 4° C. until they were imaged for microscopy.
One 4×4 tile mosaic was acquired from the center of each well using a Zeiss 510 Meta laser confocal microscope and LSM 510 Meta software. Images were imported into image analysis software ImageJ (National Institutes of Health, Bethesda, Md.) and batch processed using custom macros. […]

[1] = 250 nM added after OGD exposure
[2] = 500 nM, 90 min OGD, hippocampal (DIV 12) or cortical (DIV 28) culture

SMILES	neuroprotection after OGD by VLC-PUFA precursor [1]	neuroprotection after OGD by VLC-PUFA precursor [2]	neuroprotection against OGD-induced neuronal cell death
CC/C=C\C/C=C\C/C=C\C/C=C\C/C=C\C/C=C\CCCCCCCCCCCCC(=O)O [32:6n3, (14Z,17Z,20Z,23Z,26Z,29Z)-dotriaconta-14,17,20,23,26,29-hexaenoic acid]	provide neuroprotection	showed neuroprotection	
CC/C=C\C/C=C\C/C=C\C/C=C\C/C=C\C/C=C\CCCCCCCCCCCCCCC(=O)O [34:6n3, (16Z,19Z,22Z,25Z,28Z,31Z)-tetratriaconta-16,19,22,25,28,31-hexaenoic acid]	elicit neuroprotection	showed neuroprotection	
CC/C=C\C[C@H](O)\C=C/C=C/C=C/[C@H](O)C/C=C\C/C=C\CCCCCCCCCCCCC(=O)OC [ELV-N32-Me, methyl (14Z,17Z,20R,21E,23E,25Z,27S,29Z)-20,27-dihydroxydotriaconta-14,17,21,23,25,29-hexaenoate]			elicited neuroprotection
CC/C=C\C[C@H](O)\C=C/C=C/C=C/[C@H](O)C/C=C\C/C=C\CCCCCCCCCCCCC(=O)[O-].[Na+] [ELV-N32-Na, sodium (14Z,17Z,20R,21E,23E,25Z,27S,29Z)-20,27-dihydroxydotriaconta-14,17,21,23,25,29-hexaenoate]			elicited neuroprotection
CC/C=C\C[C@H](O)\C=C/C=C/C=C/[C@H](O)C/C=C\C/C=C\CCCCCCCCCCCCCCC(=O)OC [ELV-N34-Me, methyl (16Z,19Z,22R,23E,25E,27Z,29S,31Z)-22,29-dihydroxytetratriaconta-16,19,23,25,27,31-hexaenoate]			elicited neuroprotection
CC/C=C\C[C@H](O)\C=C/C=C/C=C/[C@H](O)C/C=C\C/C=C\CCCCCCCCCCCCCCC(=O)[O-].[Na+] [ELV-N34-Na, sodium (16Z,19Z,22R,23E,25E,27Z,29S,31Z)-22,29-dihydroxytetratriaconta-16,19,23,25,27,31-hexaenoate]			elicited neuroprotection
